This note sets out measurements from PMC8750417, “Intracellular Amplifiers of Reactive Oxygen Species Affecting Mitochondria as Radiosensitizers” (Cancers, 2021).

Experiment [1] relates to A2780 cells. Briefly: Total intracellular ROS (CM-DCFH-DA), A2780. In kind it is cell-based, human. The conditions noted are these: 2 h. On the procedure: Monitoring total intracellular ROS (tROS)
A2780 cells were seeded in RPMI 1640 medium containing 5% FBS, 1% L-glutamine and 1% penicillin/streptomycin in a 24-well microtiter plate (total volume 0.5 mL) at a density of 200 cells/µL one day before the experiment. On the day of the experiment, the cells were washed twice with DPBS buffer and the medium was replaced with HBSS (Hanks' Balanced Salt solution, 500 μL). CM-DCFH-DA (5-(6-)chloromethyl-2',7'- dichlorodihydrofluorescein diacetate, Thermo- Fisher) solution (0.1 mM in DMSO, 5 μL) was added (final concentration 1 µM) and the cells were incubated in the dark chamber filled with CO2 (5%) at 37 °C for 15 min. […] Finally, the fluorescence of live cells (λex = 488 nm, λem = 525 nm) in the suspensions was determined by using flow cytometry (Figure 4A, 5C).
Intracellular ROS release in Jurkat cells was monitored analogously (Figure S58).
Figure S58. […] OY-axis “Fluorescence”: the increase of the mean fluorescence (λex = 488 […]

The subject of experiment [2] is A2780 cells. As to the kind of experiment: Intracellular carbonyl derivatives (DCCH), A2780. In kind it is cell-based, human. The conditions noted are these: 24 h. On the procedure:
and the cells were incubated in the dark chamber filled with CO2 (5%) at 37 °C for 20 min.
Next, the cells were detached from the culture dish using trypsin/EDTA (0.025%/0.01%, v/v, 50 µL). The cells were re-suspended in RPMI 1640 medium containing 5% FBS, 1% L-glutamine and 1% penicillin/streptomycin (100 µL). Finally, the fluorescence of live cells (λex = 488 nm, λem = 578 nm) in the suspensions was determined by using flow cytometry […]
Figure S60. Representative flow cytometric histograms used for setting up Figures 4B […]
Monitoring intracellular carbonyl derivatives
A2780 cells were seeded into 24 well culture plates at the same cell concentration and in the same medium as applied for the assay for monitoring tROS described above. The next day, stock solutions of prodrugs of different concentrations (5 μL of stock solutions in DMSO, final concentration of prodrugs 5 and 10 μM; control 7 2 and 5 µM) or carrier only (DMSO, 5 µL, final concentration 1 %, v/v) were added to the wells and incubated in the chamber filled with CO2 (5%). After 24 h, the cells were washed twice with DPBS buffer and the medium was replaced with HBSS (Hanks' Balanced Salt solution, 500 μL). […]
Finally, the fluorescence of live cells (λex = 488 nm, λem = 530 nm) in the suspensions was determined by using flow cytometry (Figure 4C). […]

With `CC1(C)OB(c2ccc(COC(=O)N(Cc3cn(Cc4ccc(Cn5cc(Cc6ccccc6)nn5)cc4)nn3)[c-]3cccc3)cc2)OC1(C)C.[Fe+2].c1cc[cH-]c1` [2c], in the experiment on A2780 cells [1], the “total ROS (tROS) vs background” value is listed as “significantly higher than its background levels”. Also, in the experiment on A2780 cells [2], the “formation of intracellular carbonyl derivatives” value is “did not induce formation of significant amounts of carbonyl derivatives”.
